“And” between values parts separate entries of the source, which are not always exact repeats. Identical values can stand only once. Like-named read-outs stand apart in the source and are kept apart here. Marks after values point to notes of the source that are not given here.
What was measured:
[1] = system: B16 melanoma cells; assay: Paired isoprenoids, 48 hour cell count (FIG. 2A, 2B); assay type: cell-based, Murine
Procedure: (§1) Cultures, seeded with 1-1.5×10^5 cells, were incubated for 24 hours at 37° C. in a humidified atmosphere of 5% CO2. Isoprenoids, dissolved in absolute ethanol, were added at 24 hours (0 time); all cultures contained 5 mL ethanol/L ([…]). The cultures were incubated for an additional 48 hours. The media was removed and the monolayers were washed twice with Hanks' Balanced Salt Solution (Sigma) and then incubated with a trypsin-EDTA solution (Sigma) at 37° C. for 2 minutes. Trypsin was inactivated by suspending the cells in medium containing 10% fetal bovine serum (Sigma). The cells were pelleted at 250×g and resuspended in Hanks' Balanced Salt Solution. Viable cells, cells that excluded 0.4% trypan blue (GIPCOBRL), were counted with a hemocytometer; 24 hour cell counts were deducted from final cell counts to provide an estimate of the net increase in cell number.
We next determined that the effects of the isoprenoids on the growth of B16 melanoma cells in culture are additive, and in some cases, synergistic. FIG. 2A illustrates the additive effects of γ-tocotrienol and β-ionone on B16 melanoma cell populations. Values are means±SD, n=28; pooled SEM=36 (×10^4). Cell counts calculated to show the decreased population relative to the control are listed on the insert table.
FIG. 2B illustrates the additive effects of carvacrol and β-ionone on B16 melanoma cell populations. Values are means±SD, n=28; pooled SEM=62 (×10^4). Cell counts calculated to show the decreased population relative to the control are listed in the inset table. ^a-hMeans not sharing a superscript (a>b>c>d>e>f>g>h) are different (P<0.001). Referring to FIG. 2, B16 melanoma cells were incubated with β-ionone and d-γ-tocotrienol in one test (FIG. 2A). d-γ-Tocotrienol (7.5 μmol/L) and β-ionone (50 μmol/L) reduced the 48 hour cell count by 19% and 10% respectively (FIG. 2A). The 34% reduction in cell number achieved with the paired isoprenoids exceeded the 29% reduction predicted by the sum of the individual effects (FIG. 2A, inset). At higher concentrations d-γ-tocotrienol (15 μmol/L) and β-ionone (100 μmol/L) reduced the 48 hour cell count by 34% and […] respectively; the additive effect, a 68% reduction in cell number, was also greater than the sum of the individual effects (59%) (FIG. 2A, inset).
Carvacrol (50 μmol/L) and β-ionone (75 μmol/L) reduced the 48 hour cell count by 25% and 31% respectively; the additive effect, a 48% reduction in cell number, was less than the 56% reduction predicted by the sum of the individual effects. Carvacrol (100 μmol/L) and β-ionone (150 μmol/L) reduced the cell count by 35% and 65% respectively; the additive effect, an 84% reduction in cell number, again was less than the 100% reduction predicted by the sum the individual effects (FIG. 2B, inset). The reduction in cell number predicted by the sum of the individual effects of the isoprenoids was highly correlated with that achieved with the paired isoprenoids (r=0.91, n=8, P<0.01).

[2] = system: Murine B16(F10) melanoma cells; assay: IC50 determinations: net increase in 48 hour melanoma cell count; assay type: cell-based
Procedure: as §1
FIG. 1 is a representative evaluation of the dose-dependent impact of five different tocols on the proliferation of melanoma B16 cells. Cultures (3 mL) seeded with 1-1.5×10^5 cells were incubated for 24 hours prior to the introduction of the tocols. Viable cells were counted at 48 hours following the addition of the tocols. The cell count at 24 hours (0 time) is shown by the dashed line. The intersection of the solid horizontal line and the line plotted for each tocol indicates the concentration at which the tocol suppressed by 50% the increase in cell number during the incubation (IC50 value). IC50 values (mean, SD and n) for all isoprenoids tested are listed on Table 1. […] The growth-suppressive potency of the individual tocotrienols was inverse to the number of methyl groups on the 6-chromanol ring: d-α-tocotrienol (methyl groups at carbons 5, 7, 8 and 2)<<d-γ-tocotrienol (methyl groups at carbons 7, 8 and 2)<d-δ-tocotrienol (methyl groups at carbons 8 and 2)<<d-2-desmethyl tocotrienol (no methyl groups) (Table 1).

[3] = ubiquinone given to patients receiving 30 mg/kg or higher doses of lovastatin; cited from earlier work
[4] = system: implanted 216 melanomas; details: massive intake, 733 μmol/d; Meadows, et al., 1991; cited from earlier work
[5] = system: B16(F10) melanoma; details: for retardation in tumor growth: 10 days prior to and 28 days following implantation, P<0.05
Procedure: The first examined the impact of a diet-relevant intake of d-γ-tocotrienol on the growth of B16(F10) melanomas in host mice. […] We first prepared a basal diet mix, patterned after the AIN-76A formulation (American Institute of Nutrition, 1977) but free of corn oil and dl-α-tocopherol. These ingredients and Vitamin E-stripped corn oil were purchased from Teklad Test Diets, Madison, Wis. Stock solutions of dl-α-tocopherol (80 μmol/g) and d-γ-tocotrienol (80 μmol/g) were prepared with vitamin E-stripped corn oil. Stock solutions of the tocols, diluted with vitamin E-stripped corn oil, were mixed with the basal diet to provide finished diets containing 5% corn oil and specified tocol concentrations. Where noted, β-ionone was added to the oil. The diets, mixed weekly, were stored under refrigeration. Food cups were cleaned and refilled daily.
Experiment 1: Weanling C57BL female mice (Harlan-Sprague Dawley, Madison, Wis.) were housed in groups of four on wood shavings in plastic cages and maintained at 25° C. with a 12 hour light-dark cycle. The four groups of mice (20/group) were fed experimental diets for 10 days prior to and for 28 days following the implantation of B16 melanoma cells. The split plot design consisted of four treatments comprised of two tocols, dl-α-tocopherol and d-γ-tocotrienol, each presented at two levels, 116 and 924 μmol/kg diet. This design permitted two comparisons of diets equal in tocol content and one comparison of diets about equal in d-α-tocopherol equivalents. […] We then corrected for the biological activity of the dl-α-tocopherol mixture (70% of the activity of d-α-tocopherol) in arriving at the 8:1 tocotrienol/tocopherol ratio used in formulating the experimental diets. Melanoma cells, cultured and harvested as previously, described (Shoff, et al., 1991), were washed twice with RPMI 1640 containing 10% Fetal Bovine Sera (GIBCOBRL). The pelleted cells were suspended in RPMI 1640 and counted (98% viable) after a 1:20 dilution in 0.4% trypan blue. The cells were further diluted in RPMI 1640 (1×10^8 cells/L) and 0.1 mL of the suspension (1×10^4 cells) was injected subcutaneously into the flank of each mouse. […] The mice were killed by CO2 overdose and the tumors were excised and weighed.
Statistical Methods: StatView and SuperANOVA software (Abacus Concepts, Berkeley, Calif.) were used for the assessment of treatment-mediated effects. Treatment-mediated differences in body and tumor weights, days to tumor appearance and days to morbidity were identified with split plot analysis of variance and pairwise t-tests of least squares means. Treatment-mediated differences in days to morbidity were also assessed using parametric (paired t-test) and nonparametric (Wilcoxon signed rank) tests (Haycock, et al., 1992).
The first dietary study evaluated the impact of d-γ-tocotrienol and dl-α-tocopherol on days to detection of a solid tumor and growth of implanted B16 melanomas.

[6] = system: murine melanoma B16/F10 cells; assay: In vitro growth assays of lovastatin, β-ionone and γ-tocotrienol alone and combined (Table 5); assay type: cell-based
[7] = system: Murine B16(F10) melanoma cells; details: L. He, et al., J. Nutr. 1997; read-out: IC50, proliferation of murine melanoma B16/F10 cells; cited from earlier work
[8] = system: implanted murine melanoma B16F10 tumors; details: cited from earlier work
[9] = system: established implanted B16 melanoma; assay: Experiment 2: isoprenoid-enriched diets, survival of mice bearing established melanomas; assay type: in vivo, C57BL female mice; details: for Days survival, Mean / Days survival, Median: n = 12; for growth of established B16 melanomas: diet providing 7 μmol/d; for duration of host survival: experimental diets versus control, P<0.03
Procedure: Where noted, β-ionone was added to the oil. The diets, mixed weekly, were stored under refrigeration. Food cups were cleaned and refilled daily.
Experiment 2: Weanling female C57BL female mice (n=60, Harlan Sprague-Dawley) were acclimated to the housing conditions and AIN-76A diet (116 μmol dl-α-tocopherol/kg diet) as described above. Tumors were implanted and the mice continued to receive the AIN-76A diet. Beginning on day 8 post-implant the mice were palpated daily for the presence of a tumor. Tumors were first detected on day 14. Random numbers were generated for assigning each mouse in a sequential subset of five to a diet. Experimental treatments provided 2 and 4 mmol d-γ-tocotrienol/kg diet. We additionally tested the impact of β-ionone (2 mmol β-ionone/kg AIN-76A diet) and that of a blend of the two isoprenoids (2 mmol each/kg diet) on the survival of the mice.
We then asked if either dietary d-γ-tocotrienol or β-ionone would prolong the survival of mice bearing implanted melanomas. Dietary treatments were initiated following the detection of solid tumors. We also asked whether these structurally diverse isoprenoids would have an additive effect on survival. The experimental groups were constructed by random assignment of each member of successive subsets of 5 mice to one of the experimental diets. […] Treatments increased median duration of survival by 42±4.5% and the mean duration of survival by 30% (P<0.005); differences between duration of survival means of the experimental groups were not significant (Table 3, FIG. 3). FIG. 3 is a survival curve for host mice receiving isoprenoid-enriched diets following the detection of a solid implanted B16 melanoma. Mean survival durations are presented on Table 4. β-ionone and γ-tocotrienol^1 treatments provided 2 mmol of the isoprenoid/kg diet; the blend provided 2 mmol of each isoprenoid/kg diet; and γ-tocotrienol^2 provided 4 mmol γ-tocotrienol/kg diet.

[10] = read-out: IC50: concentration required to suppress the increase in the population of melanoma cells by 50% during a 48 hour incubation; 48 hour incubation; means ± SD
[11] = 48 hour incubation; means ± SD; read-out: IC50: concentration required to suppress the increase in the population of melanoma cells by 50% during a 48 hour incubation

## Cc1ccc(C(C)C)cc1O [Carvacrol, 5-isopropyl-2-methylphenol, reference compound]
[1]; 50 μmol/L
  reduction of 48 hour cell count: 25%
[1]; 100 μmol/L
  reduction of 48 hour cell count: 35%
[2]; [10]
  IC50: 120 ± 15 µM

## CC(C)=CCC/C(C)=C/CC/C(C)=C/CO [Farnesol, trans, trans 3,7,11-trimethyl-2,6,10 dodecatrien-1-ol]
[2]; [11]
  IC50: 50 µM

## CC(C)=CCC/C(C)=C/CO [Geraniol, trans 3,7-dimethyl-2,6-octadien-1-ol]
[2]; [11]
  IC50: 150 ± 19 µM

## C=C(C)C1CC=C(C=O)CC1 (stereo not drawn) [Perillaldehyde, [R]-4-isopropenyl-1-carboxaldehyde cyclohexene]
[2]; [10]
  IC50: 120 ± 17 µM

## C=C(C)[C@@H]1CC=C(CO)CC1 [Perillyl alcohol, [R]4-isopropenyl-1-methanol-cyclohexene]
[2]; [11]
  IC50: 250 µM

## Cc1ccc(C(C)C)c(O)c1 [Thymol, 5-methyl-2-isopropylphenol]
[2]; [11]
  IC50: 120 ± 15 µM

## COC1=C(OC)C(=O)C(C/C=C(\C)CC/C=C(\C)CC/C=C(\C)CC/C=C(\C)CC/C=C(\C)CC/C=C(\C)CC/C=C(\C)CC/C=C(\C)CC/C=C(\C)CCC=C(C)C)=C(C)C1=O [Ubiquinone]
[3]
  incidence of musculoskeletal toxicity of lovastatin: did not decrease
  severity of musculoskeletal toxicity of lovastatin: significantly decreased

## O=C1O[C@H]([C@@H](O)CO)C(O)=C1O [ascorbic acid]
[4]
  growth of implanted melanomas: suppressed

## Cc1c(C)c2c(c(C)c1O)CCC(C)(CCCC(C)CCCC(C)CCCC(C)C)O2 (stereo not drawn) [d1-α-Tocopherol, 2,5,7,8-tetramethyl-2-(4,8,12-trimethyltridecyl)-chroman-6-ol]
[5]; mouse, in vivo
  body weight at the time of tumor implant: significantly lower
[2]; [10]
  IC50: > 1600 µM
[2]; viable cells at 48 hours after addition
  impact on cell number (FIG. 1): no impact on cell number

## CC(C)=CCCC(C)=CCCC(C)=CCCC1CCc2cc(O)ccc2O1 (stereo not drawn) [d-2-desmethyl Tocotrienol, 2-(4,8,12-trimethyltrideca-3,7,11-trienyl)-chroman-6-ol]
[2]; [11]
  IC50: 0.9 µM

## C=C(C)[C@H]1CC=C(C)CC1 [d-Limonene, [R]4-isopropenyl-1-methyl-1-cyclohexene]
[2]; [11]
  IC50: 450 µM

## CC(C)=CCCC(C)=CCCC(C)=CCCC1(C)CCc2c(C)c(O)c(C)c(C)c2O1 (stereo not drawn) [d-α-Tocotrienol, 2,5,7,8-tetramethyl-2-(4,8,12-trimethyltrideca-3,7,11-trienyl)-chroman-6-ol]
[2]; [11]
  IC50: 110 µM

## CC(C)=CCCC(C)=CCCC(C)=CCCC1(C)CCc2cc(O)c(C)c(C)c2O1 (stereo not drawn) [d-γ-Tocotrienol, 2,7,8-trimethyl-2-(4,8,12-trimethyltrideca-3,7,11-trienyl)-chroman-6-ol]
[5]; 116 μmol/kg diet, isomolar substitution for dl-α-tocopherol in AIN-76A diet
  retardation in tumor growth: 36%
[5]; 928 μmol/kg diet, Vitamin E-equivalent substitution for dl-α-tocopherol in AIN-76A diet
  retardation in tumor growth: 50%
[5]; 928 μmol/kg diet, least mean squares analysis
  days post-implant to tumor detection: differed significantly from the effects of the other treatments
[5]; 116 and 928 μmol/kg diet
  28 day tumor weight, least mean squares analyses: tumor growth-suppressive action
[5]; diet providing an intake of 0.4 μmol/d (diet-relevant intake)
  growth of the B16 melanoma implanted in the flank of host mice: suppressed
[5]; diet providing only the d-α-tocopherol-equivalent of the AIN-76A diet
  suppression of tumor growth: highly significant suppression
[1]; 7.5 μmol/L
  reduction of 48 hour cell count: 19%
[1]; 15 μmol/L
  reduction of 48 hour cell count: 34%
[6]; 5 μmol/L
  Growth: 90 % of Control
[6]; 7.5 μmol/L
  Growth: 81 % of Control
[6]; 10 μmol/L
  Growth: 85 % of Control and 72 % of Control
[6]; 15 μmol/L
  Growth: 66 % of Control and 77 % of Control
[6]; 20 μmol/L
  Growth: 65 % of Control
[2]; [10]
  IC50: 20 µM
[7]
  IC50: 20 µM
[8]; 116-2000 μmol/kg diet
  growth of implanted murine melanoma B16F10 tumors: suppressed
[9]; 14 μmol/d versus 7 μmol/d, P=0.95
  further change in duration of survival on doubling the intake: -0.21 days
[9]; 2 mmol/kg diet
  Days survival, Mean: 18.67^a Days
  Days survival, Median: 20.0 days
[9]; 4 mmol/kg diet
  Days survival, Mean: 18.46^a Days
  Days survival, Median: 22.0 days
[9]
  growth of established B16 melanomas: suppressed
  duration of host survival: significantly increased
[9]; diet providing an intake of 7 μmol/d
  increase in duration of survival: 35%

## CC(C)=CCCC(C)=CCCC(C)=CCCC1(C)CCc2cc(O)cc(C)c2O1 (stereo not drawn) [d-δ-Tocotrienol, 2,8-dimethyl-2-(4,8,12-trimethyltrideca-3,7,11-trienyl)-chroman-6-ol]
[2]; [11]
  IC50: 10 µM

## CC(=O)C=CC1=C(C)CCCC1(C)C [β-Ionone]
[1]; 50 μmol/L
  reduction of 48 hour cell count: 10%
[1]; 75 μmol/L
  reduction of 48 hour cell count: 31%
[1]; 100 μmol/L
  reduction of 48 hour cell count: 16%
[1]; 150 μmol/L
  reduction of 48 hour cell count: 65%
[6]; 50 μmol/L
  Growth: 90 % of Control
[6]; 100 μmol/L
  Growth: 84 % of Control
[6]; 150 μM
  decrease in cell growth: 32%
[6]; 150 μmol/L
  Growth: 68 % of Control
[2]; [11]
  IC50: 140 ± 23 µM
[7]
  IC50: 140 µM
[8]; 2 mmol/kg diet
  growth of implanted murine melanoma B16F10 tumors: suppressed
[9]; 2 mmol/kg diet
  Days survival, Mean: 18.27^a Days
  Days survival, Median: 23.0 days
[9]
  growth of established B16 melanomas: suppressed
  duration of host survival: significantly increased

— patent US6441029B1, “Method of suppressing tumor growth with combinations of isoprenoids and statins” (Wisconsin Alumni Research Foundation, priority 1997, dated 2002)
